Laboratory results as given in the supplement of paper PMC10307832.

Experiments:
Assay in all cases: relative viability (nuclei count vs DMSO), 5 days (fraction); higher = more cells survive
[1] = compound: C1CNCCC1C2=CC(=NN2)C3=CC=NC=C3 + CC(=O)Nc1cccc(-n2c(=O)n(C3CC3)c(=O)c3c(Nc4ccc(I)cc4F)n(C)c(=O)c(C)c32)c1 [Trametinib] (partner 0.02 µM)
Method in brief: (§1)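 Medians of duplicate plates are given as relative viability. That measure is the nuclei count in treated wells divided by the count in vehicle wells. Counts were taken on 4× images of lung cancer cell lines in 1536-well plates, 5 days after pin-tool dosing the day after seeding with one drug alone or a fixed anchor-drug dose plus five library-drug doses (not always all listed) in √10 steps.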

[2] = compound: C1CNCCC1C2=CC(=NN2)C3=CC=NC=C3 + COc1cccc2cc(-c3nc([C@H]4CC[C@H](C(=O)O)CC4)n4ncnc(N)c34)[nH]c12 [OSI-027] (partner 0.5 µM)
Method in brief: as §1

Tanzisertib + Tozasertib = compound: O[C@H]1CC[C@H](Nc2ncc3nc(Nc4c(F)cc(F)cc4F)n([C@H]4CCOC4)c3n2)CC1 [Tanzisertib] + Cc1cc(Nc2cc(N3CCN(C)CC3)nc(Sc3ccc(NC(=O)C4CC4)cc3)n2)n[nH]1 [Tozasertib] (partner 0.1 µM)
Method in brief: as §1

Tanzisertib + Linsitinib = compound: O[C@H]1CC[C@H](Nc2ncc3nc(Nc4c(F)cc(F)cc4F)n([C@H]4CCOC4)c3n2)CC1 [Tanzisertib] + C[C@]1(O)C[C@@H](c2nc(-c3ccc4ccc(-c5ccccc5)nc4c3)c3c(N)nccn32)C1 [Linsitinib] (partner 1 µM)
Method in brief: as §1

Cell Line	relative viability ([1]; first compound 0.08 µM)	relative viability ([1]; first compound 0.8 µM)	relative viability ([1]; first compound 2.53 µM)	relative viability ([1]; first compound 8 µM)	relative viability ([2]; first compound 0.08 µM)	relative viability ([2]; first compound 0.8 µM)	relative viability ([2]; first compound 2.53 µM)	relative viability ([2]; first compound 8 µM)	relative viability (Tanzisertib + Tozasertib; first compound 0.08 µM)	relative viability (Tanzisertib + Tozasertib; first compound 0.253 µM)	relative viability (Tanzisertib + Tozasertib; first compound 0.8 µM)	relative viability (Tanzisertib + Tozasertib; first compound 2.53 µM)	relative viability (Tanzisertib + Tozasertib; first compound 8 µM)	relative viability (Tanzisertib + Linsitinib; first compound 0.08 µM)	relative viability (Tanzisertib + Linsitinib; first compound 0.253 µM)	relative viability (Tanzisertib + Linsitinib; first compound 0.8 µM)	relative viability (Tanzisertib + Linsitinib; first compound 2.53 µM)	relative viability (Tanzisertib + Linsitinib; first compound 8 µM)
201T	0.712	0.731	0.753	0.675	0.72	0.718	0.832	0.842	0.989	0.923	0.943	0.866	0.875	1.02	1.01	0.969	1.01	0.956
A549														0.736	0.551	0.703	0.623	0.533
A-427	0.748	0.857	0.779	0.874	0.463	0.477	0.473	0.499	0.244	0.196	0.214	0.198	0.2	1.15	1.11	1.14	1.07	1.17
ABC-1					0.556	0.484	0.65	0.575	0.165	0.197	0.175	0.137	0.134	0.728	0.65	1.07	0.977	0.736
BEN	0.769	0.936	1.05	1.02	0.303	0.295	0.233	0.33	0.464	0.451	0.621	0.418	0.407	0.875	0.916	1.11	0.984	0.904
CAL-12T	0.351	0.363	0.363	0.419	0.823	0.866	0.84	0.839	0.361	0.409	0.307	0.264	0.266	0.896	0.769	0.882	0.977	0.817
COR-L23	0.583	0.62	0.678	0.608	0.691	1.01	0.761	0.73	0.201	0.228	0.184	0.189	0.121	1.09	0.874	0.896	1.02	0.934
COR-L 105	0.42	0.501	0.427	0.47	0.694	0.678	0.925	0.664	0.386	0.366	0.323	0.388	0.331	1.13	0.78	0.895	1.12	0.77
Calu-6														1.09	0.862	0.957	1.02	0.928
ChaGo-K-1	0.916	0.85	0.897	0.807	0.559	0.557	0.589	0.575	0.251	0.227	0.216	0.218	0.217					
EBC-1														1.29	0.876	0.846	0.899	0.783
EKVX	0.402		0.366	0.445	0.646	0.72	0.734	0.718	0.403	0.395	0.407	0.36	0.377	0.953	1.02	1.04	1.02	0.822
EMC-BAC-2		0.946	0.994	0.991	0.379	0.368	0.421	0.368	0.268	0.275	0.262	0.277	0.277	0.825	0.806	0.825	0.743	0.771
EPLC-272H	0.283	0.278	0.319	0.344	0.279	0.348	0.318	0.292	0.308	0.183	0.326	0.303	0.171	1.46	1.18	1.19	1.12	1.08
H3255	0.532		0.689	0.736	0.52	0.629	0.577	0.759	0.736	0.607	0.675	0.588	0.427	0.966	0.841	0.983	0.907	0.636
HARA	0.616	0.709	0.762	1.09	0.552	0.524	0.627	0.404	0.136	0.112	0.109	0.0917	0.103	0.842	0.572	0.901	0.892	0.987
HCC-15	0.421	0.387	0.391	0.4	0.677	0.682	0.694	0.693	0.535	0.294	0.391	0.4	0.27	1.05	0.833	0.896	0.786	0.924
HCC-44	1.09	1.06	1.04	1.05	0.47	0.71	0.627	0.787	1.05	0.913	1.04	0.976	1.02	0.683	0.74	0.673	0.602	0.724
HCC-78	0.742		0.821	0.757	0.344	0.359	0.354	0.383	0.493	0.392	0.422	0.389	0.329	0.478	0.524	0.528	0.367	0.529
HCC-366	0.292	0.428	0.393	0.337	1.12	1.01	1.05	0.878	0.105	0.0977	0.114	0.0525	0.0508	0.757	0.59	0.691	0.576	0.419
HCC-827	0.524	0.5	0.599	0.601	0.666	0.673	0.806	0.782	0.432	0.449	0.354	0.353	0.3	0.919	0.915	0.907	0.954	0.746
HOP-62	0.344	0.415	0.425	0.357	0.816	0.912	0.831	0.773	0.428	0.433	0.356	0.382	0.375	0.924	1.14	1.13	1.04	0.918

Cell Line	relative viability ([1]; first compound 0.08 µM)	relative viability ([1]; first compound 0.8 µM)	relative viability ([1]; first compound 2.53 µM)	relative viability ([1]; first compound 8 µM)	relative viability ([2]; first compound 0.08 µM)	relative viability ([2]; first compound 0.8 µM)	relative viability ([2]; first compound 2.53 µM)	relative viability ([2]; first compound 8 µM)	relative viability (Tanzisertib + Tozasertib; first compound 0.08 µM)	relative viability (Tanzisertib + Tozasertib; first compound 0.253 µM)	relative viability (Tanzisertib + Tozasertib; first compound 0.8 µM)	relative viability (Tanzisertib + Tozasertib; first compound 2.53 µM)	relative viability (Tanzisertib + Tozasertib; first compound 8 µM)	relative viability (Tanzisertib + Linsitinib; first compound 0.08 µM)	relative viability (Tanzisertib + Linsitinib; first compound 0.253 µM)	relative viability (Tanzisertib + Linsitinib; first compound 0.8 µM)	relative viability (Tanzisertib + Linsitinib; first compound 2.53 µM)	relative viability (Tanzisertib + Linsitinib; first compound 8 µM)
IA-LM														0.793	0.552	0.589	0.712	0.768
LC-2-ad	0.887	1.02	0.93	0.932		0.868	0.936	0.908	0.479	0.412	0.495	0.415	0.34	0.94	0.838	0.921	0.812	0.796
LCLC-97TM1	0.191	0.204	0.172	0.193	0.57	0.508	0.519	0.531	0.252	0.199	0.207	0.207	0.179		0.18	0.192	0.186	0.2
LCLC-103H	0.689	0.724	0.67	0.674	0.432	0.485	0.447	0.457	0.597	0.442	0.499	0.475	0.457	0.928	0.994	0.917	1.06	1.11
LK-2	0.605	0.761	0.591	0.88	0.264	0.284	0.223	0.209	0.164	0.18	0.17	0.163	0.169	0.522	0.519	0.724	0.624	0.637
LOU-NH91	0.778	0.769	0.841	0.766	0.696	0.74	0.796	0.727	0.778	0.683	0.681	0.652	0.596	0.996	0.906	0.996	0.842	0.627
LU99A	0.48	0.616	0.561	0.543	0.292	0.291	0.331	0.304	0.256	0.284	0.276	0.259	0.298	0.557	0.481	0.505	0.523	0.537
LXF-289	0.658	0.768	0.653	0.706	0.847	0.829	0.901	0.728	0.236	0.165	0.149	0.17	0.147	1.04	0.916	1.04	0.995	1.04
NCI-H23	0.372		0.444	0.371	0.676	0.655	0.653	0.67	0.369	0.362	0.306	0.29	0.293	0.614	0.497	0.535	0.627	0.638
NCI-H322M	0.511	0.533	0.516	0.575	0.608	0.532	0.653	0.592	0.473	0.468	0.498	0.487	0.499	1	0.891	0.795	0.88	1.02
NCI-H358	0.12	0.128	0.136	0.169	0.593	0.713	0.834	0.698	0.119	0.0917	0.106	0.107	0.117	0.771	0.662	0.76	0.782	0.566
NCI-H522	0.764	0.716	0.918	0.744	0.731	0.813	0.693	0.709	0.578	0.458	0.555	0.572	0.545					
NCI-H1299														1.16	0.976	1.02	1.09	1.06
NCI-H1563					0.74	0.771	0.749	0.769						1.28	1.12	1.2	1.24	1.16
NCI-H1623					0.451	0.504	0.488	0.42	0.482	0.414	0.482	0.47	0.405					
NCI-H1648	0.464	0.483		0.516	0.242	0.271	0.292	0.245	0.418	0.564	0.467	0.398	0.597					
NCI-H1650	0.506	0.558	0.569	0.578	0.552	0.744	0.751	0.625	0.392	0.433	0.399	0.359	0.294					
NCI-H1703														1.03	0.674	0.787	0.316	0.546
NCI-H1792	0.428	0.487	0.539	0.438	0.74	0.766	0.706	0.749						0.552	0.562	0.623	0.497	0.478
NCI-H2170	0.763	0.925	0.915	0.907	0.611	0.697	0.776	0.686	0.881	0.789	0.669	0.717	0.651					
NCI-H2342	0.716	0.798	0.794	1.04	0.627	0.577	0.634	0.674	0.584	0.481	0.63	0.523	0.581					
SW 900	0.751		0.901	0.836	0.51	0.569	0.713	0.464	0.686	0.528	0.603	0.501	0.544					
